Assay results taken from PubChem BioAssay (NCI).
Where “and” joins values, the source holds several entries; their conditions need not be identical. Equal entries are not always repeated.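 96-well plates; 48 h exposure; 5 concentrations. Endpoints by linear interpolation between flanking doses. Not reached: highest tested concentration assigned. Abbreviation: GI50, concentration required for 50% inhibition of growth. TGI is the concentration that stops growth completely.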

How the values were obtained:
Assay in all cases: inhibition of tumour cell growth, NCI panel, 48 h
[1] = tested on: MDA-MB-435
[2] = tested on: OVCAR-5 ovarian
[3] = tested on: DU-145 prostate
[4] = tested on: HL-60(TB) leukemia
[5] = tested on: A549 NSCLC
[6] = tested on: COLO 205 colon

| SMILES | GI50 [1] [µM] | TGI [1] | GI50 [2] [µM] | TGI [2] | GI50 [3] [µM] | TGI [3] | GI50 [4] [µM] | TGI [4] | GI50 [5] [µM] | TGI [5] | GI50 [6] [µM] | TGI [6] |
| --- | --- | --- | --- | --- | --- | --- | --- | --- | --- | --- | --- | --- |
| CNCCn1c(=O)c2cc(OC)c(OC)cc2c2ccc3cc4c(cc3c21)OCO4 | 0.131 | 0.708 µM | 0.195 | 2.6 µM | 0.122 | 2.51 µM | 0.173 | 0.864 µM | 0.116 | 0.638 µM | 0.0753 | 0.735 µM |
| Cc1ccc2nc(-c3ccc(N(C)C)c(Br)c3)cn2c1 | 22.6 | > 100 µM | > 100 | > 100 µM | > 100 | > 100 µM | 1.61 | > 100 µM | > 100 | > 100 µM | > 100 | > 100 µM |
| CCOc1cccc(/C=N/NC(=O)C(=O)Nc2cccc(C(F)(F)F)c2)c1O | 4.16 | > 100 µM | 5.67 | > 100 µM | 3.22 | > 100 µM | 0.89 | 4.45 µM | 2.04 | > 100 µM | 2.43 | > 100 µM |
| O=C1NC(=S)S/C1=C(/C=C(\CC(=O)c1ccccc1)c1ccc(Cl)cc1)c1ccccc1 | 37.2 | > 100 µM | 65.4 | > 100 µM | 43.1 | > 100 µM | 21.7 | 55.2 µM | 20.2 | > 100 µM | 32.5 | > 100 µM |
| Cc1sc2nc3c4ccccc4c(NCCCN(C)C)nn3c(=O)c2c1C | 1.79 | 3.74 µM | 14.2 | 28.5 µM | 4.4 | 14.5 µM | 9.98 | 25.8 µM | 2.52 | 20.4 µM | 1.43 | 2.79 µM |
| COc1cc(/C=C2\C(=O)Nc3ccc(N(C)C)cc32)cc(OC)c1OC | – | – | 5.86 | > 80.2 µM | 3.08 | > 29.3 µM | 1.35 | 5.8 µM | 3.86 | 35.9 µM | 1.89 | 4.73 µM |
| CCN(CC)C(=S)SC | – | – | – | > 100 µM | – | > 100 µM | – | > 100 µM | – | > 100 µM | – | > 100 µM |
| CC(CCC(=O)O)C(=O)O (configuration not stated) | – | > 100 µM | – | > 100 µM | – | > 100 µM | – | > 100 µM | – | > 100 µM | – | > 100 µM |
| CN(C)CCCNC(=O)c1ccc2c(c1)oc1cc3ccccc3c(=O)n12 | 19.1 | > 50 µM | – | – | – | – | 11 | 30.8 µM | 5.98 | 16 µM | 14.6 | 32.5 µM |
| Cn1c2c(c3ccc(Cl)c(Cl)c31)C(C#N)C1(CCNCC1)NC2=O (configuration not stated) | 1.4 | 2.9 µM | 1.49 | 4.68 µM | 1.56 | 3.03 µM | 1.96 | 3.91 µM | 2.42 | 7.89 µM | 1.19 | 2.54 µM |
| Cc1nc2sccn2c1-c1csc(Nc2cccc(Cl)c2C)n1 | 1.95 | 6.47 µM | 24 | > 100 µM | 8.45 | 72 µM | 3.43 | 19.3 µM | 3.23 | 49.2 µM | 6.75 | 43.7 µM |
| COc1ccc(Cn2c3c(cc(OS(=O)(=O)C(F)(F)F)c2=O)Cc2ccccc2-3)cc1 | 29.4 | 50 µM and > 100 µM | > 100 | 50 µM and > 100 µM | 17.1 | 50 µM and > 100 µM | 3.6 | 46.2 µM and 17 µM | 9.95 | 50 µM and > 100 µM | 61.1 | 50 µM and > 100 µM |
| Cc1cc(S(=O)(=O)NC#N)c(S/C(=N\Nc2ccc([N+](=O)[O-])cc2)c2ccc(Cl)cc2)cc1Cl | 64.3 | > 100 µM | 44 | > 100 µM | 17.6 | > 100 µM | 36.2 | > 100 µM | 52.6 | > 100 µM | 15.2 | 30.7 µM |
| Cc1c(C(=O)NCCN2CCOCC2)cn2ncnc(Oc3ccc(NC(=O)Nc4ccc(Cl)c(C(F)(F)F)c4)cc3)c12 | 1.29 | 2.75 µM | – | – | – | – | 0.417 | 1.7 µM | – | – | – | – |
| Cc1cc(Cl)ccc1Nc1nc(C(F)(F)F)ccc1C(=O)N/N=C/c1ccc([N+](=O)[O-])cc1 | 2.45 | 7.69 µM | 2.99 | > 100 µM | 1.78 | – | – | – | 1.07 | 5.54 µM | 1.75 | 3.64 µM |
| C=C1C(=O)O[C@H]2[C@H]1CC/C(COC(=O)c1cc3cc(Cl)ccc3[nH]1)=C\CC[C@@]1(C)O[C@@H]21 | 1.24 | 2.51 µM | 1.53 | 3.28 µM | – | – | 0.44 | 2.3 µM | 1.69 | 3.31 µM | 1.72 | 3.7 µM |
| Cc1cc2c(cc1C)N(C(=O)CCl)CCN2C(=O)CCl | 1.02 | 2.69 µM | 1.5 | 3.08 µM | 1.54 | 2.9 µM | – | – | 2.09 | 4.29 µM | 0.484 | 1.02 µM |
| COC(=O)c1nc(Cl)nc(Cl)c1Cl | – | 29.3 µM | – | 52.3 µM | – | > 100 µM | – | – | – | > 100 µM | – | 36 µM |
| COc1ccccc1/C=C/C(=O)c1ccccc1 | 5.16 | 21.7 µM | 18.9 | 36.5 µM | 5.23 | 16.3 µM | 2.18 | 20.9 µM | 17.9 | 38.8 µM | 16.9 | 42.1 µM |
| Cc1[nH]nc(C(=O)n2nc(N)c3ccccc32)c1[N+](=O)[O-] | > 100 | > 100 µM | > 100 | > 100 µM | > 100 | > 100 µM | – | > 100 µM | > 100 | > 100 µM | > 100 | > 100 µM |
| COc1ccc2[nH]c(O)c(C(=Nc3ccc(N(C)C(=O)CN4CCN(C)CC4)cc3)c3ccccc3)c2c1 | 1.29 | 11.3 µM | 2.68 | 16.4 µM | 2.66 | 11.8 µM | 0.88 | 2.86 µM | 2.73 | 14.1 µM | 0.575 | 2.9 µM |
| COc1ccc2c(c1)/C(=C\c1c(Cl)[nH]c3ccc(OC)cc13)C(=O)N2 | 33.7 | > 100 µM | 77.3 | > 100 µM | > 100 | > 100 µM | 26.9 | 67.3 µM | 65.1 | > 100 µM | 18.9 | 39.8 µM |
